Test results: patent US20260083769A1, “2-Aminopropane-1,3-Diol-Capped Cationic Peptoids for Nucleic Acid Delivery” (NUTCRACKER THERAPEUTICS, INC., priority 2022, published 2026)
Like-named read-outs stand apart in the source and are kept apart here. Where a SMILES comes first, the peptide text is derived from it. [ ]: non-standard residue; d: D form. N(2-ethylhexyl)Gly = CCCCC(CC)CNCC(=O)O; Gly(N-dodecyl) = CCCCCCCCCCCCNCC(=O)O; N(CH(CH2OH)2)Gly = O=C(O)CNC(CO)CO; N(octyl)Gly = CCCCCCCCNCC(=O)O; NDecylGly = CCCCCCCCCCNCC(=O)O

Legend:
[1] = Particle size and polydispersity (PDI) of delivery vehicles by dynamic light scattering; assay type: physicochemical; conditions: Table 5; delivery vehicle comprising the peptoid, Formulation D22, fLuc mRNA
Method: The resulting delivery vehicle complexes were evaluated by dynamic light scattering (DLS) to determine the volume average particle size/diameter (nm) and the size polydispersity index (PDI) within the delivery vehicle complex.
Particle size. Particle sizes and size distributions were measured using a Wyatt DynaPro® Plate Reader III. In general, formulated samples were diluted to 2 ng/μL in 100 µL PBS. Data is reported as the hydrodynamic diameter (in nm) of the cumulant fit of the correlation function, and the polydispersity of that measurement.
(§1) In one particular instance, the size and polydispersity (PDI) of delivery vehicles was measured by dynamic light scattering in PBS using a DynaPro® plate reader III. The zeta potential of delivery vehicles was determined using Nano-ZS™ particle analyzer. Zeta sample was diluted to 30 uM total lipid in a weakly buffered solution of 10 mM HEPES, 10 mM MES, 10 mM ammonium acetate pH 7. Measurements were collected in duplicate for over 30 run with the voltage manually set to […]

[2] = Percent encapsulated mRNA, RiboGreen assay; assay type: physicochemical; conditions: Table 5; delivery vehicle comprising the peptoid, Formulation D22, fLuc mRNA
Method: Percent encapsulation. The percentage of mRNA encapsulated within the delivery vehicle complexes containing Fluc mRNA was determined using a modified RiboGreen® assay. In general, formulated mRNA samples were diluted to 500 ng/ml in Tris-EDTA buffer with or without Triton-X™. RiboGreen® (Invitrogen) was added at a 200-fold dilution, and the plate was incubated for 5 minutes. Fluorescence was measured at Ex. […]/Em. 520 nm and encapsulated mRNA was calculated by taking the ratio of fluorescence for non-lysed particles versus lysed particles.
The mRNA concentration and the percentage of encapsulated mRNA were determined using a fluorescence-based Quant-iT™ RiboGreen® RNA Reagent Kit using a literature procedure. To determine the mRNA concentration, delivery vehicles were incubated with 2% Triton™ X-100 for 10 min to release entrapped mRNA, followed by addition of RiboGreen® RNA reagent. The fluorescence intensity of mRNA-RiboGreen® reagent complex (excitation at 485 nm and emission at 530 nm) was detected using a microplate reader. The ratio of fluorescence without and with Triton™ X-100 were used to calculate the percentage of encapsulated mRNA.

[3] = Zeta potential of delivery vehicles; assay type: physicochemical; conditions: Table 5; delivery vehicle, pH 7 buffer; in mV (unit assumed)
Method: as §1

[4] = Apparent particle pKa, TNS fluorescence assay; assay type: physicochemical; conditions: Table 5; apparent particle pKa of delivery vehicle
Method: The apparent particle pKa was assessed by a TNS fluorescence assay. Briefly, particles were diluted to 130 uM total lipid in TNS buffer ranging in pH 3-11 for 10 minutes with […] of TNS probe. The fluorescence was measured at room temperature in a plate reader ex 320/em 445. Fluorescence intensity was normalized to the minimal and maximal values and the pKa was determined by a 3 parameter fit to determine the half maximum of the curve.

[5] = RBC hemolysis as metric for fusogenicity; assay type: cell-based; conditions: sheep red blood cells (RBCs), 5% v/v, Table 5, delivery vehicle, 37° C. 45 min
Method: RBC hemolysis was used as a metric for fusogenicity of LNPs at low pH. […] Particles were diluted to […] total lipid in well with 5% RBC solution and incubated at 37° C. for 45 min. Supernatant was collected and absorbance read on a microplate reader at 425 nm. Fusion was normalized to a fully lysed sample with 2% Triton™ and a buffer-only control. % hemolysis=100*[(ABS T-background)−(ABS sample-background)/(ABS T-background)].

BALB/c mice = assay: In vivo fLuc mRNA expression after IV dose, whole body and organ bioluminescence; conditions: BALB/c mice, IV, luminescence 6 hours after dose, lipid block screen
Description: In one particular instance, peptoids disclosed herein were formulated into delivery vehicles by first dissolving in ethanol along with DSPC, cholesterol, and DMG-PEG2000 at weight ratio of 20:1.8:7.2:1.8 (Formulation D22 in Table 3, above), then mixed with firefly luciferase (fLuc) mRNA dissolved in an aqueous buffer at a volume ratio of 1:3 via microfluidic nanoprecipitation on a turbulent mixing device, resulting in small, low dispersity particles. Physical particle properties were characterized. Delivery vehicles with initial sizes larger than 120 nm were not brought forward into in vivo screening as liver fenestrae primarily accommodate LNPs sized under 100 nm. In vivo expression of delivery vehicles comprising peptoids with varied headgroups was evaluated using fLuc expression in BALB/c mice 6 hours after IV dose (FIG. 1). […] The aminoethyl and aminopropyl headgroups both show preferential expression in lung (FIG. 2), potentially due to the high basicity of the pendant primary amine, as groups with higher pKas are known to accumulate in that organ. […] While spleen and lung selectivity merit further optimization for future therapeutic applications, liver-selective targets were used for further studies herein to prepare for systemic delivery of antibody targets and maximize their serum expression with anti-RSV cargo.
Intravenous administration. The delivery vehicle complexes disclosed herein are effective for in vivo administration of Fluc mRNA to BALB/c mice through multiple routes of administration. In general, delivery system complexes were administered at a dose of 0.5 mg/kg via a tail-vein injection, and the resulting bioluminescence was quantified after 6 hours. Organ-specific bioluminescence was quantified by sacrificing the treated animal, dissecting out the organs of interest, and separately quantifying the resulting bioluminescence
In one particular instance, to investigate how the peptoid lipid block impacts in vivo expression, delivery vehicles with diameter larger than 120 nm were excluded and remaining candidates were administered IV to BALB/c mice. Luminescence was measured after 6 hours and the resulting expression in liver, lung and spleen were quantified. Even without changing the cationic headgroup, luciferase expression spanned 4 orders of magnitude as a result of altering the lipid block in this series. […] In vivo expression of all candidates was then fit to a multi-parameter model containing the 4 input parameters to understand the individual contributions of each factor to overall performance. […] Contour plots of the impact of these factors on expression (all using Ehx as the branched/unsaturated monomer) are shown in FIG. 4.
For imaging studies, female BALB/c mice (6-8 weeks old) were obtained and acclimatized for a minimum of 3 days prior to experiments. The animals were maintained on a 12 hour light cycle in a temperature and humidity controlled room. A daily health check was performed as well as food and water check. For dosing, mice were injected with 2.5 μg fLuc mRNA-containing delivery vehicles intravenously in 100 μL total injection volume. At 6 hours post-injection, mice were anesthetized with isoflurane, and injected intraperitoneally with 30 mg/mL D-luciferin at a dose of 10 μL per gram bodyweight intraperitoneally. Imaging was done 10 minutes post D-luciferin injection using an IVIS® Spectrum Imaging System. Immediately after in vivo imaging, mice were terminally bled by cardiac puncture and euthanized. The organs of interest were harvested, placed in black 24-well plates, and imaged. Living Image® software was used to quantify the total photon flux in regions of interest. For secreted protein studies, mice were injected with aRSV mRNA-containing delivery vehicles intravenously in 100 μL total injection volume. Mice were euthanized after 24 hours, with serum collection at 6 and 24 hours post-injection. […]

[6] = pH 5, read-out: Hemolysis at pH 5
[7] = pH 7, read-out: Hemolysis at pH 7

CCCCCCCCCCN(CC(=O)N(CC(N)=O)CC(CC)CCCC)C(=O)CN(CCCCCCCC)C(=O)CN(CC(CC)CCCC)C(=O)CN(CCCCCCCCCC)C(=O)CN(CCCCCCCC)C(=O)CNC(CO)CO (stereo not drawn) [Compound 28] (H-[N(CH(CH2OH)2)Gly][N(octyl)Gly][NDecylGly][N(2-ethylhexyl)Gly][N(octyl)Gly][NDecylGly][N(2-ethylhexyl)Gly]-NH2)
PDI [1]: 0.089
Particle Size (nm) [1]: 86.6 nm
% Encapsulation [2]: 82.2%
Zeta Potential [3]: −5.98
pKa (TNS) [4]: 5.844
hemolysis at 45 min, 150 mM total lipid [5, 6]: 15.1%
hemolysis at 45 min, 150 mM total lipid [5, 7]: 5.6%

CCCCCCCCCCN(CC(=O)N(CCCCCCCCCC)CC(=O)N(CC(=O)N(CCCCCCCCCC)CC(=O)N(CCCCCCCCCC)CC(=O)N(CC(N)=O)CC(CC)CCCC)CC(CC)CCCC)C(=O)CNC(CO)CO (stereo not drawn) [Compound 29] (H-[N(CH(CH2OH)2)Gly][NDecylGly][NDecylGly][N(2-ethylhexyl)Gly][NDecylGly][NDecylGly][N(2-ethylhexyl)Gly]-NH2)
PDI [1]: 0.094
Particle Size (nm) [1]: 92.7 nm
% Encapsulation [2]: 81.9%
Zeta Potential [3]: −7.04
pKa (TNS) [4]: 6.044
hemolysis at 45 min, 150 mM total lipid [5, 6]: 4.8%
hemolysis at 45 min, 150 mM total lipid [5, 7]: 1.3%

CCCCCCCCCCCCN(CC(=O)N(CCCCCCCCCCCC)CC(=O)N(CC(=O)N(CCCCCCCCCCCC)CC(=O)N(CCCCCCCCCCCC)CC(=O)N(CC(N)=O)CC(CC)CCCC)CC(CC)CCCC)C(=O)CNC(CO)CO (stereo not drawn) [Compound 30] (H-[N(CH(CH2OH)2)Gly][Gly(N-dodecyl)][Gly(N-dodecyl)][N(2-ethylhexyl)Gly][Gly(N-dodecyl)][Gly(N-dodecyl)][N(2-ethylhexyl)Gly]-NH2)
PDI [1]: 0.097
Particle Size (nm) [1]: 82.6 nm
% Encapsulation [2]: 87.7%
Zeta Potential [3]: −1.41
pKa (TNS) [4]: 6.084
hemolysis at 45 min, 150 mM total lipid [5, 6]: 17.3%
hemolysis at 45 min, 150 mM total lipid [5, 7]: 2.1%

CCCCCCCCCCCCN(CC(=O)N(CCCCCCCCCCCC)CC(=O)N(CCCCCCCC)CC(=O)N(CCCCCCCCCCCC)CC(=O)N(CCCCCCCCCCCC)CC(=O)N(CCCCCCCC)CC(N)=O)C(=O)CNC(CO)CO [Compound 33] (H-[N(CH(CH2OH)2)Gly][Gly(N-dodecyl)][Gly(N-dodecyl)][N(octyl)Gly][Gly(N-dodecyl)][Gly(N-dodecyl)][N(octyl)Gly]-NH2)
PDI [1]: 1
Particle Size (nm) [1]: 165.8 nm
% Encapsulation [2]: −1.8%
Zeta Potential [3]: −2.12
pKa (TNS) [4]: 5.935
hemolysis at 45 min, 150 mM total lipid [5, 6]: 0.9%
hemolysis at 45 min, 150 mM total lipid [5, 7]: 0.4%

CCCCCCCCCCCCN(CC(=O)N(CC(N)=O)CC(CC)CCCC)C(=O)CN(CCCCCCCC)C(=O)CN(CC(CC)CCCC)C(=O)CN(CCCCCCCCCCCC)C(=O)CN(CCCCCCCC)C(=O)CNC(CO)CO (stereo not drawn) [Compound 35] (H-[N(CH(CH2OH)2)Gly][N(octyl)Gly][Gly(N-dodecyl)][N(2-ethylhexyl)Gly][N(octyl)Gly][Gly(N-dodecyl)][N(2-ethylhexyl)Gly]-NH2)
PDI [1]: 0.082
Particle Size (nm) [1]: 90.7 nm
% Encapsulation [2]: 76.1%
Zeta Potential [3]: −5.88
pKa (TNS) [4]: 5.937
hemolysis at 45 min, 150 mM total lipid [5, 6]: 4.5%
hemolysis at 45 min, 150 mM total lipid [5, 7]: 5.1%
fLuc (luciferase) expression in vivo (BALB/c mice): top expressers

CCCCCCCCCCN(CC(N)=O)C(=O)CN(CCCCCCCCCC)C(=O)CN(CCCCCCCCCC)C(=O)CN(CCCCCCCCCC)C(=O)CNC(CO)CO [Compound 37]
PDI [1]: Multimodal
Particle Size (nm) [1]: 181.4 nm
% Encapsulation [2]: 56.4%
Zeta Potential [3]: −0.676
pKa (TNS) [4]: 6.418
hemolysis at 45 min, 150 mM total lipid [5, 6]: 7.8%
hemolysis at 45 min, 150 mM total lipid [5, 7]: 23.9%

CCCCCCCCCCCCN(CC(N)=O)C(=O)CN(CC(CC)CCCC)C(=O)CN(CCCCCCCCCCCC)C(=O)CN(CCCCCCCCCCCC)C(=O)CN(CC(CC)CCCC)C(=O)CN(CCCCCCCCCCCC)C(=O)CNC(CO)CO (stereo not drawn) [Compound 40] (H-[N(CH(CH2OH)2)Gly][Gly(N-dodecyl)][N(2-ethylhexyl)Gly][Gly(N-dodecyl)][Gly(N-dodecyl)][N(2-ethylhexyl)Gly][Gly(N-dodecyl)]-NH2)
PDI [1]: Multimodal
Particle Size (nm) [1]: 270.5 nm
% Encapsulation [2]: 55.9%
Zeta Potential [3]: −7.48
pKa (TNS) [4]: 4.883
hemolysis at 45 min, 150 mM total lipid [5, 6]: 0.5%
hemolysis at 45 min, 150 mM total lipid [5, 7]: -0.1%

CCCCCCCC/C=C\CCCCCCCCN(CC(=O)N(CCCCCCCC)CC(=O)N(CCCCCCCC/C=C\CCCCCCCC)CC(=O)N(CCCCCCCC)CC(N)=O)C(=O)CNC(CO)CO [Compound 44]
PDI [1]: 0.194
Particle Size (nm) [1]: 98.1 nm
% Encapsulation [2]: 76.4%
Zeta Potential [3]: 2.39
pKa (TNS) [4]: 6.936
hemolysis at 45 min, 150 mM total lipid [5, 6]: 51.6%
hemolysis at 45 min, 150 mM total lipid [5, 7]: 95.8%
